Data from publication PMC11267568 (2024).

Key:
Experiment in all cases: in-line probing
[1] = tested on: 11-1 (RNA, aptamer) GGCUACCGCCGCUGGCUCUCGGGCGACUGUGCCUCGCGUGGAUAUGGCACGCGUAGAAGGGCACCGUAAAUGUCCUACUUGCGGUAGUCAUCCCGAUGGACACUGUCGGCGUAG; conditions: 10 mM MgCl2, 50 mM KCl (1x of 2x buffer); 25 mM Tris-HCl pH 8.3 (1x), room temperature, ~48 h
[2] = tested on: 11-1B (RNA, aptamer) GGCUACCGCCGCUGGCUCUCGGGCGACUGUGCCUCGCGUGGAUAUGGCACGCGUAGAAGGGCACCGUAAAUGUCCUACUUGCGGUAGUC; conditions: 10 mM MgCl2, 50 mM KCl (1x of 2x buffer); 25 mM Tris-HCl pH 8.3 (1x), room temperature, ~48 h
[3] = tested on: r10-1 (RNA, aptamer) GGACCUCGAGGCUACCGCGGCUGGCUCUCGGACGACUAUGCCUCGCGUGGAUAUGGCACGCGUAGAAGGGCACCGUAAAUGUCCUACUUGCGGUAGUCAUCCCGAUGGA; conditions: 10 mM MgCl2, 50 mM KCl (1x of 2x buffer); 25 mM Tris-HCl pH 8.3 (1x), room temperature, ~48 h
[4] = tested on: r10-2 (RNA, aptamer) GGACCUCGAGGCUACCGCAGCUGGCUCUCGGACGACUAUGCCUCGCGUGGAUAUGGCACGCGUAGAAGGGCACCGUAAAUGUCCUACUUGCGGUAGUCAUCCCGAUGGA; conditions: 10 mM MgCl2, 50 mM KCl (1x of 2x buffer); 25 mM Tris-HCl pH 8.3 (1x), room temperature, ~48 h
[5] = tested on: r10-3 (RNA, aptamer) GGACCUCGAGGCUACCGCGGCUGGCUCUCGGACGACUGUGCCUCGCGUGGAUAUGGCACGCGUAGAAGGACACCGUAAAUGUCCUACUUGCGGUAGUCAUCCCGAUGGA; conditions: 10 mM MgCl2, 50 mM KCl (1x of 2x buffer); 25 mM Tris-HCl pH 8.3 (1x), room temperature, ~48 h
[6] = tested on: r10-4 (RNA, aptamer) GGACCUCGAGGCUACCGCGGCUGGCUCUCGGACGACUAUGCCUCGCGUGGAUAUGGCACGCGUAGAAGGGCACCGUAAAUGCCCUACUUGCGGUAGUCAUCCCGAUGGA; conditions: 10 mM MgCl2, 50 mM KCl (1x of 2x buffer); 25 mM Tris-HCl pH 8.3 (1x), room temperature, ~48 h
[7] = tested on: r10-1C (RNA, aptamer) GGCUACCGCGGCUGGCUUCGGCCUCGCGUGGAUAUGGCACGCGUAGAAGGGCACCGUAAAUGUCCUACUUGCGGUAGUC; conditions: 10 mM MgCl2, 50 mM KCl (1x of 2x buffer); 25 mM Tris-HCl pH 8.3 (1x), room temperature, ~48 h
[8] = tested on: r10-1C-M1 (RNA, aptamer) GGCUACCGCGGCUGGCUUCGGCCUCGCGUGGAUAUAACACGCGUAGAAGGGCACCGUAAAUGUCCUACUUGCGGUAGUC; conditions: 10 mM MgCl2, 50 mM KCl (1x of 2x buffer); up to 10 μM branaplam; 25 mM Tris-HCl pH 8.3, room temperature
[9] = tested on: r10-1G (RNA, aptamer) GGCUGGCUUCGGCCUCGCGUGGAUAUGGCACGCGUAGAAGGGCACCGUAAAUGUCCUACUU; conditions: 10 mM MgCl2, 50 mM KCl (1x of 2x buffer); 25 mM Tris-HCl pH 8.3 (1x), room temperature, ~48 h
[10] = tested on: r10-1H (RNA, aptamer) GGCCUCGCGUGGAUAUGGCACGCGUAGAAGGGCACCGUAAAUGUCCUACUU; conditions: 10 mM MgCl2, 50 mM KCl (1x of 2x buffer); 25 mM Tris-HCl pH 8.3 (1x), room temperature, ~48 h
[11] = tested on: r10-1N (RNA, aptamer) GGCCUCGCGUGGAUAUGGCACGCGUAGAAGGGCACCGUAAAUGUCCUA; conditions: 10 mM MgCl2, 50 mM KCl (1x of 2x buffer); 25 mM Tris-HCl pH 8.3 (1x), room temperature, ~48 h
[12] = tested on: 11-19A (RNA, aptamer) GGCUACCGCCGCUGGGCUCUCGGGACGACACUGAGGGAACGCGUGGAUAUGGCACGCAACAGCGGGCACCGUAAAUGUCCUGGCGGUAGUC; conditions: 10 mM MgCl2, 50 mM KCl (1x of 2x buffer); 25 mM Tris-HCl pH 8.3 (1x), room temperature, ~48 h
[13] = tested on: t14-4 (RNA, aptamer) GGCUGAUCUCCCAUCGGUAUGCCCUUCUGUGUGAAGGCGGUACUAAUGCCGGAGUGUAGAAACUGGAUAAUGCCAGUUAGUGGUAUGGAGAUACUACGACGCACGC; conditions: 10 mM MgCl2, 50 mM KCl (1x of 2x buffer); 25 mM Tris-HCl pH 8.3 (1x), room temperature, ~48 h
[14] = tested on: 11-19 (RNA, aptamer) GGCUACCGCCGCUGGGCUCUCGGGACGACACUGAGGGAACGCGUGGAUAUGGCACGCAACAGCGGGCACCGUAAAUGUCCUGGCGGUAGUCGACCCGAUGGACACUGUCGGCGUAG; conditions: 10 mM MgCl2, 50 mM KCl (1x of 2x buffer); 0.1 to 10 μM branaplam

KD [1]: 2440 ± 1030 nM | KD [2]: 1170 ± 170 nM | KD [3]: 420 ± 41 nM | KD [4]: 623 ± 55 nM | KD [5]: 964 ± 382 nM | KD [6]: 634 ± 74 nM | KD [7]: 400 ± 43 nM | binding [8]: no | KD [9]: 352 ± 21 nM | KD [10]: 311 ± 19 nM | KD [11]: 150 ± 26 nM | KD [12]: 846 ± 127 nM | KD [13]: 2270 ± 150 nM | binding [14]: yes
SMILES: CC1(C)CC(Oc2ccc(-c3ccc(-c4cn[nH]c4)cc3O)nn2)CC(C)(C)N1
